Measurements taken from PubChem BioAssay (NCI).
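Method: 48-hour compound exposure of cells in 96-well plates, five concentrations, linear interpolation of endpoints. The concentration for 50% growth inhibition is given as GI50. TGI marks complete inhibition of growth.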

What was measured:
Assay in all cases: DTP human tumour cell line panel, 48 h
[1] = system: A498 renal
[2] = system: A549 NSCLC
[3] = system: DU-145 prostate
[4] = system: IGROV1 ovarian
[5] = system: MALME-3M melanoma
[6] = system: NCI-H23 lung
[7] = system: RXF 393 renal
[8] = system: SK-MEL-5 melanoma
[9] = system: UACC-62 melanoma
[10] = system: SK-OV-3 ovarian

| Structure (SMILES) | GI50 [1] [µM] | TGI [1] [µM] | GI50 [2] [µM] | TGI [2] [µM] | GI50 [3] [µM] | TGI [3] [µM] | GI50 [4] [µM] | TGI [4] [µM] | GI50 [5] [µM] | TGI [5] [µM] | GI50 [6] [µM] | TGI [6] [µM] | GI50 [7] [nM] | TGI [7] [µM] | GI50 [8] [µM] | TGI [8] [µM] | GI50 [9] [µM] | TGI [9] [µM] | TGI [10] [µM] | GI50 [10] [µM] |
| --- | --- | --- | --- | --- | --- | --- | --- | --- | --- | --- | --- | --- | --- | --- | --- | --- | --- | --- | --- | --- |
| C=CCn1c(C)nc2ccc(Nc3nc(Nc4ccc(F)cc4)nc4ccccc34)cc21 | 4.36 | 24.1 | 4.18 | 22.2 | 8.63 | 22.8 | 6.09 | 27.2 | 13.1 | 35.7 | 4.23 | 26 | 1230 | 2.57 | 1.36 | 2.64 | 1.8 | 3.7 |  |  |
| COC/C=C\COC |  |  |  | > 100 |  |  |  | > 100 |  | > 100 |  |  |  | > 100 |  | > 100 |  | > 100 | > 100 |  |
| C=C(CC(NC(=O)c1ccc(C(CC)Cc2cnc3nc(N)nc(N)c3n2)cc1)C(=O)O)C(=O)O (stereo not given) |  |  |  | > 100 |  |  |  | > 100 |  |  |  | > 100 |  | > 100 |  | > 100 |  | > 100 | > 100 | 0.0669 |
| O=c1c2cc(F)ccc2sc2c(N3CCNCC3)nc3ccc(F)cc3c12 | 1.67 | 3.09 |  |  | 1.68 | 3.09 | 1.34 | 2.74 | 1.59 | 3.06 | 1.67 | 3.17 | 1330 | 2.71 | 1.73 | 3.11 | 1.74 | 3.19 |  |  |
| CCC[CH2][Sn]([Cl])([Cl])[CH2]CCC |  |  | 2.65 | 8.25 |  |  | 1.04 | 1.62 | 0.371 | 1.44 | 0.62 | 2.21 | 232 | 0.49 | 0.509 | 1.55 | 0.429 | 1.63 | 3.08 | 1.67 |
| Cc1ccc(NC(=O)CCc2nc(N)nc(N)c2-c2ccccc2)cc1C |  | > 100 |  | > 100 |  |  |  | > 100 |  | > 100 |  | > 100 |  |  |  | > 100 |  | > 100 | > 100 |  |
| COc1ccc(OC)c(NC(=O)CCC/C(CC(=O)c2ccc(O)c(OC)c2)=N\Nc2nnc(C)n2N)c1 |  | > 100 |  | > 100 |  |  |  | > 100 |  | > 100 |  | > 100 |  |  |  | > 100 |  | > 100 | > 100 |  |
| CC(C)(C)c1cc(C(O)(C(F)(F)F)C(F)(F)F)c2c(c1)C(C(F)(F)F)(C(F)(F)F)OC(C)(C(C)(C)C)N2 (stereo not given) |  |  |  | 33.4 |  |  |  | > 100 |  | 78.2 |  | 7.41 |  | 16.2 |  | 4.7 |  | 15 | 6.14 |  |
| CC[n+]1oc(C(=O)c2ccc(Cl)cc2)c(-c2ccccc2)c1-c1ccccc1.[Cl][Fe]([Cl])([Cl])[Cl] | 22.2 | 75.1 | 22.1 | 68 | 18.9 | 75 |  |  | 39.7 | > 100 | 45.7 | > 100 |  |  | 19.5 | 45.8 | 63.8 | > 100 | > 100 | 46.7 |
| Cc1[nH]nc(C(F)(F)F)c1N=NN(C)C |  | > 100 |  | > 100 |  | 24.2 |  |  |  | 38.3 |  | 21.9 |  | 26.5 |  | > 100 |  | 20.6 | 25 |  |
| COc1ccc(NC(=O)CSC2=C(Nc3cccc(Br)c3)C(=O)N(Cc3ccccc3)C2=O)cc1Cl |  |  | 62.4 | > 100 | > 100 | > 100 | 30.7 | > 100 |  |  |  |  | > 100000 | > 100 | 16.8 | > 100 | 46.2 | > 100 | > 100 | > 100 |
| CCOC(=O)C(=O)Nc1ccccc1C |  | > 100 |  | > 100 |  |  |  | > 100 |  | > 100 |  | > 100 |  | > 100 |  | > 100 |  | > 100 | > 100 |  |
| CCOC(=O)c1cc2cc3c4c(c2oc1=O)CCCN4CCC3 |  | 79 |  | > 100 |  | > 100 |  | > 100 |  | > 100 |  | > 100 |  | 39.4 |  | 26.8 |  |  |  |  |
| CC(Oc1ccc2c(-c3ccccc3)cc(=O)oc2c1)C(=O)O (stereo not given) |  | > 100 |  | > 100 |  |  |  | > 100 |  | > 100 |  | > 100 |  | > 100 |  | > 100 |  | > 100 | > 100 |  |
| O=C(Cc1nc2ccccc2c(=O)n1-c1ccccc1Cl)c1ccncc1 |  | > 100 |  | > 100 |  |  |  | > 100 |  | > 100 |  | > 100 |  | > 100 |  | > 100 |  | > 100 | > 100 |  |
| CCC(=O)c1c(NOC2OCC(OC(C)=O)C(OC(C)=O)C2OC(C)=O)nc(OC)n(C)c1=O (stereo not given) |  | > 100 |  | > 100 |  |  |  | > 100 |  | > 100 |  | > 100 |  | > 100 |  | > 100 |  | > 100 | > 100 |  |
| COc1ccc(NC(=O)CC2SC(=Nc3ccccc3C)NC2=O)c([N+](=O)[O-])c1 (stereo not given) |  |  |  | > 100 |  |  |  | > 100 |  | > 100 |  | > 100 |  |  |  |  |  | > 100 | > 100 |  |
| COc1ccc(NC(=O)/C(=C/c2ccccc2)C(C)=O)cc1 |  | 36.7 |  | 54.2 |  |  |  | 38.6 |  | 32.3 |  |  |  |  |  | 28.2 |  | 22.3 | 95.1 |  |
| COC(=O)/C=C(C)/C=C/C1OC(C)OCC1O (stereo not given) |  | > 100 |  | > 100 |  |  |  | > 100 |  | > 100 |  | > 100 |  |  |  | > 100 |  | > 100 | > 100 |  |
| O=C(CCC(=O)Nc1ccc(Cl)c(Cl)c1)CC(=O)c1ccc(Br)cc1 |  | > 100 |  | > 100 |  |  |  | > 100 |  | > 100 |  | > 100 |  | > 100 |  | > 100 |  | > 100 | > 100 |  |
| CCC(O)c1ccc(Br)cc1NC(=O)c1cccc(Cl)c1 (stereo not given) | 16.3 | 54 | 19.5 | > 100 | 34.5 | > 100 | 17.2 | 92.6 | 36.6 | > 100 | 22.4 | 86.6 |  |  | 14.5 | 28.2 | 12.5 | > 100 | 64.3 | 23.7 |
